{
  "source": "patent EP0994713B1",
  "about": "“USE OF A 7alpha-METHYL-17alpha-ETHYNYL-ESTRANE DERIVATIVE FOR THE TREATMENT OF ATHEROSCLEROSIS” (Akzo Nobel N.V., priority 1997, dated 1998)",
  "type_in_all_cases": "in vivo, New Zealand White rabbits",
  "key": {"[1]": {"tested_on": "female ovariectomized rabbits", "test": "Intimal thickening (advanced lesions) in carotid artery after de-endothelialisation", "details": "for Advanced lesions in carotid artery: intimal surface: cholesterol diet, OVX, necropsy at 20 weeks", "procedure": "(§1) The model is considered relevant to the human atherosclerotic process, because the cellular events occurring during the development of the atherosclerotic lesions during the atherogenic diet are similar to those observed in different stages of atherosclerotic processes in coronary arteries.\nAn experiment was performed with 7 groups of sexually mature, virgin female New Zealand White rabbits (Harlan, Zeist, The Netherlands), age 7-9 months and weighing approximately 3 kg (number of […] per group: 13-14). During the acclimatization period the rabbits were fed a diet of standard commercial rabbit chow LKK20 (Hope Farms, Woerden, The Netherlands). Three weeks prior to the start of the experiment the animals were anaesthetized and underwent bilateral ovariectomy (OVX) or were sham operated. After three weeks, at the start of the experiment, the rabbits were randomized over the treatment groups. In all animals de-endothelialisation of a segment of the left carotid artery was applied by using the air-drying technique (Fishman, J.A. et al., \"Endothelial regeneration in the rat carotid artery and the significance of endothelial denudation in the pathogenesis of myointimal thickening\", Lab. Invest. 1975, 32, 339-351; and Lafont, A. et al., \"Restenosis and experimental angioplasty: Intimal, medial and adventitial changes associated with constructive remodeling\", Circulation Research, 1995, 76, 996-1002)\nThe animals were randomly allocated into 7 experimental groups using a randomized block design. The groups were fed an atherogenic diet (commercial rabbit chow (LKK20) enriched with 0.4 grams cholesterol, 3.75 grams coconut oil and 3.75 grams peanut oil per 100 grams). One group was fed the standard rabbit chow (LKK20). Food intake was restricted to 80 grams daily.\n(§2) The treatments (Table I) were daily administered orally as a tablet, prepared as in Example 1. Groups 1, 2 and 3 were on a daily placebo treatment. Groups 4-5 were treated with 7α-methyl-17α-ethynyl-17β-hydroxy-estra-5(10)-en-3-one (OD-14; tibolone; 6 or 2 mg daily); group 6 with 17β-estradiol (4 mg daily). Group 7 was on treatment with 17β-estradiol decanoate (150 µg in 1 ml arachis oil injected subcutaneously once a week).\nDuring the experiment blood samples were drawn out of the central ear artery after sedation with Hypnorm (0.1 ml i.m.) (Janssen Pharmaceutics, Beerse, Belgium) before the daily treatment, at week 4,8,12,16 and 20, to monitor the plasma cholesterol levels and to measure, at week 17, plasma estradiol levels and plasma tibolone levels. Twenty weeks after the start of the experiment animals were anaesthetized by an i.m. injection of Hypnorm (0.5 ml/kg). After blood sampling the rabbits were killed by exsanguination and the aortic arch, uterus and carotid artery removed for further analyses. […]\nThe left (airdried) carotid artery was dissected and fixed in 2% paraformaldehyde containing 6.8% glucose. The right carotid artery was used as comparison. After fixation the tissue was divided in blocks with a length of 2 mm and embedded in paraffin (Paraplast plus®, Sherwood Medical Co, St. Louis, USA) using an automated tissue processor (Hypercenter XP, Shandon).\nTo measure intimal thickening (using image analysis) a specific staining method and a belonging image analysis application have been developed.\nMeasurements were performed on 2 µm transverse sections which were treated with elastase (Serva Feinbiochemica Gmbh, Heidelberg, Germany) prior to elastin staining with Lawson solution (Boom, Meppel, the Netherlands) and light green (Sigma). Subsequently sections were airdried and mounted in Pertex (Leica Gmbh, Nussloch, Germany).\nFor morphological study both methylene blue/Azur II and hemotoxylin/eosin stained (2 µm) transverse sections were used. Smooth muscle cells and macrophages were detected with respectively α-actin antibodies (Sigma) and anti-macrophage antibodies (RAM11, DAKO, Glostrup, Denmark). […]"}, "[2]": {"tested_on": "female ovariectomized rabbits", "test": "Vessel wall cholesterol measurement in the aortic arch", "details": "for Cholesterol level in aortic arch: cholesterol diet, OVX, necropsy at 20 weeks", "procedure": "as §1\n(§3) An experiment was performed with 7 groups of sexually mature, virgin female New Zealand White rabbits (Harlan, Zeist, The Netherlands), age 7-9 months and weighing approximately 3 kg (number of […] per group: 13-14). During the acclimatization period the rabbits were fed a diet of standard commercial rabbit chow LKK20 (Hope Farms, Woerden, The Netherlands). Three weeks prior to the start of the experiment the animals were anaesthetized and underwent bilateral ovariectomy (OVX) or were sham operated. After three weeks, at the start of the experiment, the rabbits were randomized over the treatment groups.\n(§4) The animals were randomly allocated into 7 experimental groups using a randomized block design. […] One group was fed the standard rabbit chow (LKK20). Food intake was restricted to 80 grams daily.\nas §2, with “Groups” for “The treatments (Table I) were daily administered orally as a tablet, prepared as in Example 1. Groups”\n(§5) During the experiment blood samples were drawn out of the central ear artery after sedation with Hypnorm (0.1 ml i.m.) (Janssen Pharmaceutics, Beerse, Belgium) before the daily treatment, at week 4,8,12,16 and 20, to monitor the plasma cholesterol levels and to measure, at week 17, plasma estradiol levels and plasma tibolone levels. Twenty weeks after the start of the experiment animals were anaesthetized by an i.m. injection of Hypnorm (0.5 ml/kg). After blood sampling the rabbits were killed by exsanguination and the aortic arch, uterus and carotid artery removed for further analyses.\n(§6) Three weeks prior to the start of the experiment the animals were ovariectomized. At the start of the experiment the carotid artery was de-endothelialised using the air-drying technique. The normal rabbit chow was replaced by the atherogenic diet except for the control group which received during the experiment the normal rabbit chow.\n(§7) Group 5 was on treatment with 17β-estradiol decanoate (300 µg in 1 ml arachis oil injected subcutaneously once a week).\nThe amount of protein in the tissue was determined by the method of Lowry."}, "[3]": {"tested_on": "female ovariectomized rabbits", "test": "Plasma cholesterol levels, cholesterol fed rabbit model", "details": "for Mean plasma cholesterol exposure: cholesterol diet, OVX, 20 weeks", "procedure": "as §1, §3, §4\nas §2, with “Groups” for “The treatments (Table I) were daily administered orally as a tablet, prepared as in Example 1. Groups”\nas §5, §6, §7"}, "[4]": {"test": "Plasma estradiol and plasma tibolone levels at week 17", "details": "rabbit, 6 mg per day", "procedure": "as §5\nThe plasma levels indicate that both modes of administration of estradiol lead to effective plasma levels. Using the human doses of estradiol and Org OD14 used for HRT treatment and corrected for the caloric intake it was expected that in the rabbit an oral dose of 4 mg estradiol is about equipotent with 6 mg Org OD14."}, "[5]": {"details": "Example 2, Group 4: 6 mg orally daily"}, "[6]": {"details": "Example 2, Group 5: 2 mg orally daily"}, "[7]": {"details": "Example 2: Org OD14 2 and 6 mg, E2 4 mg orally daily, E2D 150 µg s.c. weekly"}, "[8]": {"details": "Example 3: 0.15 mg orally once daily"}, "[9]": {"details": "Example 3: 0.6 mg orally once daily"}},
  "data": [
    {"smiles": "C#C[C@]1(O)CC[C@H]2[C@@H]3[C@H](C)CC4=C(CCC(=O)C4)[C@H]3CC[C@@]21C", "note": "[Org OD14, 7α-methyl-17α-ethynyl-17β-hydroxy-estra-5(10)-en-3-one]", "values": [
      {"measurement": "Advanced lesions in carotid artery: intimal surface", "setting": "[1]; [5]", "value": "0.13 ± 0.03 * mm^2"},
      {"measurement": "Advanced lesions in carotid artery: intimal surface", "setting": "[1]; [6]", "value": "0.14 ± 0.02 * mm^2"},
      {"measurement": "Histology of the lesions", "setting": "[1]; Example 2, carotid artery, placebo on cholesterol diet: smooth muscle cells and foam cells", "value": "the lesions consisted only of smooth muscle cells"},
      {"measurement": "advanced lesion formation following mechanical de-endothelisation (in words)", "setting": "[1]; [7]", "value": "strongly inhibited the formation of advanced lesions"},
      {"measurement": "Advanced lesions in carotid artery: intimal surface", "setting": "[1]; [8]", "value": "0.24 ± 0.05", "unit": "mm^2"},
      {"measurement": "Advanced lesions in carotid artery: intimal surface", "setting": "[1]; [9]", "value": "0.14 ± 0.01 * mm^2"},
      {"measurement": "Cholesterol level in aortic arch", "setting": "[2]; [5]", "value": "52 ± 9", "unit": "nmol/mg protein"},
      {"measurement": "Cholesterol level in aortic arch", "setting": "[2]; [6]", "value": "61 ± 11", "unit": "nmol/mg protein"},
      {"measurement": "cholesterol accumulation in the aortic arch (in words)", "setting": "[2]; Example 2: Org OD14 2 and 6 mg, E2 4 mg orally daily", "value": "completely prevented cholesterol accumulation"},
      {"measurement": "Cholesterol level in aortic arch", "setting": "[2]; [8]", "value": "297 ± 67", "unit": "nmol/mg protein"},
      {"measurement": "Cholesterol level in aortic arch", "setting": "[2]; [9]", "value": "97 ± 23", "unit": "nmol/mg protein"},
      {"measurement": "Mean plasma cholesterol exposure", "setting": "[3]; [5]", "value": "11.2 ± 1.5", "unit": "mmol/L/day"},
      {"measurement": "Mean plasma cholesterol exposure", "setting": "[3]; [6]", "value": "9.0 ± 1.3", "unit": "mmol/L/day"},
      {"measurement": "plasma cholesterol levels (in words)", "setting": "[3]; [7]", "value": "strongly reduced the plasma cholesterol levels"},
      {"measurement": "Mean plasma cholesterol exposure", "setting": "[3]; [8]", "value": "20.7 ± 1.5", "unit": "mmol/L/day"},
      {"measurement": "Mean plasma cholesterol exposure", "setting": "[3]; [9]", "value": "12.8 ± 1.2", "unit": "mmol/L/day"},
      {"measurement": "plasma concentrations of Org OD14", "setting": "[4]", "value": "comparable to those obtained in women with the clinical dose of 2.5 mg"}
    ]}
  ]
}
